Assay results: US20260091136A1, “USING ENHO GENE THERAPY TO TREAT CARDIOMETABOLIC DISEASE” (University of Pittsburgh-of the Commonwealth System of …, priority 2023, published 2026)
Entries after “also recorded” stand apart in the source; their conditions may differ.

Columns and labels:
Format in all cases: in vivo, C57BL/6J mice
[1] = test system: LCAD; test: LCAD activity assay in cardiac tissue; conditions: isolated cardiac tissues; downregulated in HFpEF vs chow
Description: (§1) Animal Care and Use. Male C57BL/6J 8-week-old mice were obtained from the Jackson Laboratory and maintained on chow for 4 weeks to acclimate to their new environment. Animals were housed in the University of Pittsburgh animal facility under standard conditions with ad libitum access to water and food and maintained on a constant 12-hour light/dark cycle. At 12 weeks of age, the mice were exposed to normal chow (Chow; 60% carbohydrate, 26% protein, 14% fat), or a combination of high-fat diet (HFD; 20% carbohydrate, 20% protein, 60% fat) plus No-nitro-L-arginine methyl ester (L-NAME: 0.5 g/L) supplemented in their drinking water after adjusting the pH to 7.4 with 1N NaOH to induce HFpEF [10]. For cohort 1, the mice were subject to the HFpEF diet for 15 weeks. For cohort 2, after 8 weeks of diet, mice were randomly assigned to a control or treatment group receiving daily intraperitoneal injections of either vehicle or recombinant adropin at 450 nmol/kg animal weight prepared in PBS with 0.1% BSA for the remaining 5 weeks of the study. L-NAME supplemented drinking water was changed weekly and adropin was made fresh and sterile filtered before each use.
LCAD Activity Assay/Biochemical Assays/Enzyme activity assay. […] The reaction was initiated with 60 µM acyl-CoA, and the rate of absorbance change was measured/observed at 600 nm over 45 min. […]

[2] = test system: hexosamine biosynthesis pathway (HBP); test: Immunoblotting of cardiac proteins (O-GlcNAc, GFAT, OGT, OGA, CD36, PDK4, PLIN5); conditions: heart; for CD36 abundance: to levels observed in chow mice; for total cardiac protein O-GlcNAcylation: to levels observed in chow mice (P=0.06 in b192)
Description: as §1
Protein Isolation and Immunoblotting. Heart tissues were rapidly harvested following euthanasia, weighed, RV discarded and LV flash-frozen in liquid nitrogen. For protein isolation, tissues were minced and lysed in CHAPS buffer (1% CHAPS, 150 mM NaCl, 10 mM HEPES, pH 7.4) using a VWR 4-Place Mini Bead Mill, then incubated on ice for ˜2.5 h. Homogenates were spun at 10,000 g at 4° C. for 10 min, and the supernatants collected for immunoblotting. For immunoblotting, protein lysates were quantitated using a BioDrop LITE Analyzer, prepared in LDS sample buffer, separated using Bolt SDS-PAGE 4-12% or 12% Bis-Tris Plus gels, and transferred to nitrocellulose membranes. Membranes were blocked using SuperBlock (PBS) Blocking Buffer and incubated overnight in the following primary antibodies: rabbit PDK4 (PA5-13776); mouse 0-GlcNAc (9875), rabbit GFAT (D12F4), rabbit OGT (D1D8Q), rabbit OGA (E9C5U), rabbit GAPDH (2118S); rabbit CD36 (18836-1-AP), rabbit CPT1b (22170-1-AP), rabbit LCAD (17526-1-AP), and GCN5L1 as previously reported (Scott et al., 2012). Protein loading was confirmed using GAPDH as a loading control. Fluorescent […] or anti-rabbit secondary antibodies (red, 700 nm; green, 800 nm) were used to detect expression levels. Images were obtained using Licor Odyssey CLx System and protein densitometry was measured using the LiCor Image Studio Lite Ver. 5.2 Software.

[3] = test system: HFpEF mice; test: Heart weight and heart histology (Masson's trichrome, WGA), cohort 2; conditions: for cardiac fibrosis / cardiomyocyte hypertrophy: HFpEF mice following Adropin treatment, histology
Description: as §1
Histology. Preparation and staining of all histological samples were conducted by the Pitt Biospecimen Core at the University of Pittsburgh. All mice were sacrificed, and tissue harvested for analysis within one hour of completion of the IPGTT study. The apex of the heart and right (cohort 1) or left (cohort 2) lobe of the liver was excised from each mouse following euthanasia, fixed in 10% buffered formalin phosphate overnight at shaking incubation, washed 3 times for 5 min with 1× phosphate-buffered saline (PBS), and then transferred to 70% ethanol. Samples were then embedded in paraffin, sectioned into 4 μm slides and stained with hematoxylin and eosin (H&E), wheat germ agglutinin (WGA) or Masson's Trichrome for analysis. The NAFLD/MAFLD activity score (NAS) was obtained based on methods established by the Pathology Committee of the Non-alcoholic Steatohepatitis (NASH) Clinical Research Network. Liver pathology scoring was performed in a blinded independent fashion. NAS consisted of separate category scores which included steatosis (0-3), where 0=0-5%, 1=6-33%, 2=34-66%, and 3=67-100% of hepatocytes positive for steatosis; lobular inflammation (0-3), where 0=no foci, 1=[…], 2=2-4 foci and 3=greater than 4 foci all per 200× field; and hepatocellular ballooning (0-2), where 0=none present, 1=few and 2=many/prominent. The final NAS represents a sum of the three category scores. Histology sections were visualized with the Evos FL Auto 2 Microscope, observed changes in structure were quantified using ImageJ software and representative images are shown.

[4] = test system: HFpEF mice; test: Liver H&E histology, NAFLD/MAFLD activity score (NAS), cohort 2; conditions: adropin-treated vs HFpEF mice; non-significant
Description: as §1
Histology. […] Histology sections were visualized with the Evos FL Auto 2 Microscope, observed changes in structure were quantified using ImageJ software and representative images are shown.

[5] = test system: HFpEF mice; test: Body weight, HFpEF (HFD+L-NAME) mice with daily i.p. recombinant adropin (cohort 2, Examples 3 and 4); conditions: HFpEF+Adropin vs vehicle-treated HFpEF, 450 nmol/kg daily i.p., day 28
Description: Twelve week-old C57BL/6J wild-type male mice were exposed to normal chow, or a combination of 60% high fat diet plus N^ω-nitro-L-arginine methyl ester (L-NAME: 0.5 g/L in drinking water) to induce HFpEF. After 8 weeks of diet, mice were randomly assigned to a control HFpEF group, or to a group receiving daily intraperitoneal injections of recombinant Adropin (450 nmol/kg) for the remaining weeks of the study. All animal experiments were approved by the University of Pittsburgh Institutional Animal Care and Use Committee. […] These changes occurred in the absence of systolic dysfunction (FIG. 6). Each marker of cardiac dysfunction was absent in HFpEF mice treated with Adropin (FIG. 6).
Animal Care and Use. Male C57BL/6J 8-week-old mice were obtained from the Jackson Laboratory and maintained on chow for 4 weeks to acclimate to their new environment. Animals were housed in the University of Pittsburgh animal facility under standard conditions with ad libitum access to water and food and maintained on a constant 12-hour light/dark cycle. At 12 weeks of age, the mice were exposed to normal chow (Chow; 60% carbohydrate, 26% protein, 14% fat), or a combination of high-fat diet (HFD; 20% carbohydrate, 20% protein, 60% fat) plus No-nitro-L-arginine methyl ester (L-NAME: 0.5 g/L) supplemented in their drinking water after adjusting the pH to 7.4 with 1N NaOH to induce HFpEF [10]. […]

[6] = Adropin-treated HFpEF mice, listed as adropin

“Adropin: recombinant Adropin peptide hormone encoded by the ENHO gene; full-length (SEQ ID NO: 1) or cleaved product of amino acids 34-76 (SEQ ID NO: 2) (CHSRSADVDSLSESSPNSSPGPCPEKAPPPQKPSHEGSYLLQP)” was tested, and the “LCAD enzymatic activity (oxidation rates)” value [1] was “restored”, the PDK4 enzyme expression [2] was “no observed changes” and the “inhibition of cardiac protein O-GlcNAcylation by mediating expression of OGT and OGA” value [2] was “did not inhibit”. For the same substance, the GFAT expression ([2]; Adropin-treated HFpEF mice) was “did not reduce”, the CD36 abundance ([2]; Adropin-treated HFpEF mice) was “restored” and the “total cardiac protein O-GlcNAcylation” value ([2]; Adropin-treated HFpEF mice) was “restored; also recorded: decrease”. For the same substance, the “total cardiac protein O-GlcNAcylation” value [2, 6] was “restored”, the CD36 abundance [2, 6] was “restored; also recorded: significantly attenuated” and the “PLIN5 expression (aberrant fatty acid utilization)” value ([2]; increased in HFpEF vs chow) was “corrected”. The “increase in normalized heart weight to tibia length” value ([3]; HFpEF increase vs chow, in adropin-treated animals) was “absent”, the cardiac fibrosis [3] was “prevented the development; also recorded: reduced” and the cardiomyocyte hypertrophy [3] was “prevented the development; also recorded: reduced”. For the same substance, the cardiac fibrosis ([3]; listed as adropin) was “reversed”, the cardiomyocyte hypertrophy ([3]; listed as adropin) was “reversed” and the “decrease in liver NAS” value [4] was about 7%. The absolute body weight [5] was “not associated with a significant decrease; also recorded: does not significantly change” and the absolute body weight ([5]; listed as adropin) was “non-significant decrease”.
